The text below walks through data of patent US9518088B2, “Peptide-phospholipid conjugates” (Indiana University Research and Technology Corporation, priority 2011, dated 2016).

For one data set, the target named is T1, CD36 macrophage receptor (Mus musculus, UniProt Q08857).
T1 construct: endogenous in cells; host or cells: J774 murine macrophage cell line
As to the kind of experiment: CD36 macrophage receptor binding competition assay (biotinylated CuOxLDL binding to J774 macrophages). Also on record: species or system murine. From the text: Data are given as relative light units (RLU) per 100 ms (milliseconds). The plot is a representative experiment chosen from among at least four experiments. […] Data are shown as mean±SD (Standard Deviation) of B/B0 from 2 independent experiments with triplicate determination. […] Data are shown as mean±SD of B/B0 from two independent experiments with triplicate determination. Data in FIG. 3B and FIG. 3C were produced in parallel experiments.
The fixed concentration of biotinylated CuOxLDL (1.8 pmol apoB/mL, corresponding 1 μg apoB/mL or 0.14 nmol PC-epitopes/mL) was preincubated with compound 6, the control peptide TGTKGG, CuOxLDL, or native LDL, added at the concentrations indicated on the graphs, and then tested for binding as described in the experimental section. The highest CuOxLDL concentration tested was 200 μg/mL, which corresponds to approximately 28.3 nmoles of PC-epitopes/mL, as estimated from the previous observation that 1 mole of apoB-100 from CuOxLDL contains 78±15 moles of covalently attached phosphorus^10, which it is assumed are PC-epitopes only. The concentration of native LDL is plotted at equal protein concentration to CuOxLDL (and thus not as molar concentration of PC-epitopes). Each data point represents the mean and SD of 2 independent experiments of triplicate wells.
Each of peptide-phospholipid conjugates 6 and 23-27 were tested as competitors in a CD36 macrophage receptor binding competition assay, where fixed concentrations of CuOxLDL were incubated with the serially diluted competitor and controls in PBS buffer. The IC50 of each competitor is reported below in Table 1, confirming the affinity of the compounds of the invention for the CD36 macrophage receptor:
Binding of biotinylated OxLDL ligands to murine macrophages plated in microtiter wells was assessed by a chemiluminescent binding assay. Isolated human LDL was biotinylated according to manufacturer's protocol (Catalog No. 21326; Pierce Biotechnology). Native and biotinylated native LDL were subjected to copper sulfate oxidation in parallel to prepare unlabelled and biotinylated CuOxLDL ligands, respectively. It has been previously shown that CuOxLDL contains approximately 78 moles of PC-epitopes per mole of apoB-100 (the sole protein on LDL). The biotinylated native LDL and CuOxLDL ligands of equal protein concentration were serially diluted and tested for binding to adherent macrophages. The specificity of the binding of biotinylated CuOxLDL to macrophages was tested in competition experiments, where fixed concentrations of biotinylated CuOxLDL were incubated with the serially diluted competitor and controls in PBS. The ligand-competitor solutions were incubated overnight at 4° C. Murine macrophages from the J774 cell line were cultured in 10% fetal bovine serum in DMEM (DMEM-10) and plated in 100 μL L929-fibroblast conditioned media at 100,000 or 25,000 cells/well, respectively, in sterile 96-well flat-bottom white plates (Greiner Bio-One). The plating media consisted of 20% L929-fibroblast conditioned DMEM-10 and 80% fresh DMEM-10 and served as a source of growth factors, including macrophage colony-stimulating factor. After 72 hours, the plates were washed gently 5 times with PBS using a microtiter plate washer (Dynex Technologies, Chantilly, Va.), and wells were blocked with ice-cold 200 μL DMEM for 30 min, while plates were kept on ice. After washing, macrophages were incubated with ice-cold ligand and ligand-competitor solutions (100 μL/well) for 2 hours on ice, washed again, and fixed with ice-cold 3.7% formaldehyde in PBS for 30 min in the dark. After fixing the macrophages, the remaining part of the assay was carried out at room temperature. Macrophage-bound biotinylated OxLDL ligands were detected with NeutrAvidin-conjugated alkaline phosphatase (Pierce Biotechnology), LumiPhos 530 (Lumigen, Southfield, Mich.), and a Dynex Luminometer (Dynex Technologies). […]

Data set [1] is described as follows: Stability of the conjugates.
Data set [2] in a line: Solubility in water / aqueous buffers.
In another data set the test system is macrophages and T-cells. Description: Affinity for macrophages and T-cells. It counts as cell-based.

Where two headings read alike, the source gives them in different places.

T1 sequence (Q08857 whole entry): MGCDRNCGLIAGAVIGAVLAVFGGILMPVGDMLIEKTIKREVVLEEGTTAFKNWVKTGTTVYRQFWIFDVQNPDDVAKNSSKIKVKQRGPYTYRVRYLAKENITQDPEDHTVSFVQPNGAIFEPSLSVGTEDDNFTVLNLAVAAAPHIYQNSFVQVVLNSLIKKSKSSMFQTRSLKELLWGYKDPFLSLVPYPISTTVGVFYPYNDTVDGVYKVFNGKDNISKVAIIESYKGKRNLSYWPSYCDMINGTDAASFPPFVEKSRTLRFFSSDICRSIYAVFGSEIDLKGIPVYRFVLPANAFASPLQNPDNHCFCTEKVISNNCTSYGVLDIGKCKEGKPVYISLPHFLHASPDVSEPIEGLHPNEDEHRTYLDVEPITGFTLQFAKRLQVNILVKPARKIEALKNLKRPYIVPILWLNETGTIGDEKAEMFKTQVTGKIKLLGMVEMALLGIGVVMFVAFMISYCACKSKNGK

For `CCCCCCCCCCCCCCCC(=O)OC[C@H](COP(=O)([O-])OCC[N+](C)(C)C)OC(=O)CCCCN(C)CCCC[C@H](NC(C)=O)C(=O)NCC(=O)NCC(=O)O` [Compound 23], the half-maximal inhibitory concentration (IC50) on CD36 macrophage receptor (competitor serially diluted, fixed concentration of CuOxLDL, PBS buffer, J774 macrophages, read-out: IC50) came out at 38 µM.

Turning to `CCCCCCCCCCCCCCCC(=O)OC[C@H](COP(=O)([O-])OCC[N+](C)(C)C)OC(=O)CCCCN(C)CCCC[C@H](NC(=O)[C@H](Cc1ccccc1)NC(=O)[C@H](C)NC(C)=O)C(=O)NCC(=O)NCC(=O)O` [Compound 27], the IC50 on CD36 macrophage receptor is 47 µM.

Consider `CCCCCCCCCCCCCCCC(=O)OC[C@H](COP(=O)([O-])OCC[N+](C)(C)C)OC(=O)CCCCN(C)CCCC[C@H](NC(=O)[C@H](C)NC(C)=O)C(=O)NCC(=O)NCC(=O)O` [Compound 24], for which, on CD36 macrophage receptor, the 50% inhibitory concentration (IC50) was determined as 131 µM.

`CCCCCCCCCCCCCCCC(=O)OC[C@H](COP(=O)([O-])OCC[N+](C)(C)C)OC(=O)CCCCN(C)CCCC[C@H](NC(=O)[C@H](Cc1ccccc1)NC(C)=O)C(=O)NCC(=O)NCC(=O)O` [Compound 26]: at CD36 macrophage receptor, the concentration for half-maximal inhibition (IC50) came out at 47 µM.

As for `CCCCCCCCCCCCCCCC(=O)OC[C@H](COP(=O)([O-])OCC[N+](C)(C)C)OC(=O)CCCCOCCCC[C@H](NC(=O)[C@@H](NC(=O)CNC(=O)[C@@H](NC(C)=O)[C@@H](C)O)[C@@H](C)O)C(=O)NCC(=O)N[C@@H](Cc1ccc(O)cc1)C(=O)O` [Compound 4], the stability result in data set [1] is recorded as “stable”. Further, in data set [2], the “water solubility / solubility in aqueous buffers” value (shortened to “water solubility / solubility”) is listed as “poor water solubility”.

`CCCCCCCCCCCCCCCC(=O)OCC(COP(=O)([O-])OCC[N+](C)(C)C)OC(=O)CCCCOCCCC[C@H](NC(=O)[C@H](C)NC(=O)[C@H](C)NC(C)=O)C(=O)N[C@@H](C)C(=O)N[C@@H](Cc1ccc(O)cc1)C(=O)O` (stereo partly shown) [Compound 3]: the stability result in data set [1] is listed as “stable”. For the same compound, the “water solubility / solubility” value in data set [2] is on record as “poor water solubility”.

In the case of `CCCCCCCCCCCCCCCC(=O)OC[C@H](COP(=O)([O-])OCC[N+](C)(C)C)OC(=O)CCCCN(C)CCCC[C@H](NC(=O)[C@@H](NC(=O)CNC(=O)[C@@H](NC(C)=O)[C@@H](C)O)[C@@H](C)O)C(=O)NCC(=O)NCC(=O)O` [Compound 6], the IC50 on CD36 macrophage receptor came out at 60 µM. Besides, the “competition with biotinylated CuOxLDL binding to macrophages” value on CD36 macrophage receptor (J774 macrophages, fixed biotinylated CuOxLDL 1.8 pmol apoB/mL (1 μg apoB/mL), FIG. 3B/3C, mean of 2 independent experiments, triplicate wells) is “more than 99%”. In addition, the “affinity for macrophages and T-cells” value in the data set on macrophages and T-cells was “showed affinity for macrophages and T-cells”. Further, the stability result in data set [1] was “stable”. The “water solubility / solubility” value in data set [2] is listed as “soluble in aqueous buffers”.

For the compound `CCCCCCCCCCCCCCCC(=O)OC[C@H](COP(=O)([O-])OCC[N+](C)(C)C)OC(=O)CCCCCCCCC[C@H](NC(=O)[C@@H](NC(=O)CNC(=O)[C@@H](NC(C)=O)[C@@H](C)O)[C@@H](C)O)C(=O)NCC(=O)N[C@@H](Cc1ccc(O)cc1)C(=O)O` [Compound 5], in data set [1], the stability entry is recorded as “stable”. Moreover, the “water solubility / solubility” value in data set [2] is recorded as “poor water solubility”.

Consider `CCCCCCCCCCCCCCCC(=O)OC[C@H](COP(=O)([O-])OCC[N+](C)(C)C)OC(=O)CCCCN(C)CCCC[C@H](NC(=O)[C@@H](NC(C)=O)C(C)C)C(=O)NCC(=O)NCC(=O)O` [Compound 25], for which the IC50 on CD36 macrophage receptor was determined as 55 µM.

What is called IC50 is the point on the concentration scale where inhibition reaches its midpoint.
